Results from US8299093B2, “Small molecule inhibitors of retroviral assembly and maturation” (New York Blood Center, Inc., priority 2008, dated 2012).
Where two headings read alike, the source gives them in different places.

Key:
[1] = XTT cytotoxicity assay in MT-2 cells; assay type: cell-based; details: human, cell type not given
Method: Briefly, for MT-2 cells, 100 μL of small molecule at graded concentrations was added to an equal volume of cells (5×10^4 cells/ml) in 96-well plates followed by incubation at 37° C. for 4 days, which ran parallel to the neutralization assay in MT-2 (except medium was added instead of virus). In the case of PBMC, 2.5×10^5 cells/mL were used and the cytotoxicity was measured after 7 days. After addition of XTT (PolySciences, Inc.), the soluble intracellular formazan was quantitated calorimetrically at 450 nm 4 hours later with a reference at 620 nm. The CC50 values were calculated.

[2] = system: HIV-1; experiment: Inhibition of HIV-1 infectivity (p24 ELISA) in MT-2 cells, laboratory-adapted HIV-1 strains; assay type: cell-based; details: Human immunodeficiency virus 1, MT2, 96 h, MT-2 cells, p24 ELISA day 4
Method: AZT was used as a positive control in the infectivity assays. In brief, 1×10^4 MT-2 cells (lymphocytes) were infected with HIV-1 at 100 TCID50 (50% tissue culture infective dose, 0.01 MOI [multiplicity of infection]) in 200 μL RPMI 1640 medium containing 10% FBS in the presence or absence of small molecules at graded concentrations overnight. The culture supernatants were then removed and fresh media containing freshly prepared test compounds were added. On the fourth day post-infection, 100 μL of culture supernatants were collected from each well, mixed with equal volume of 5% TRITON X-100® and tested for p24 antigen by ELISA®.

[3] = Table 1, formula I, read-out: CC50 (concentration that causes 50% cytotoxicity)
[4] = read-out: IC50 (concentration that provides 50% inhibition of HIV-1 p24), Table 1, formula I
[5] = Table 2, formula II, read-out: CC50

Row | SMILES | CC50 [1, 3] [µM] | IC50 [2, 4] [µM] | CC50 [1, 5] [µM] | IC50 ([2]; Table 2, formula II) [µM]
1 | COc1ccc2cc(CN(Cc3ccc4c(c3)OCO4)C(=S)Nc3ccc(C)cc3)c(=O)[nH]c2c1 [NYAD-S2] | > 10 | > 10 |  | 
2 | CCc1ccc2[nH]c(=O)c(CN(Cc3cccnc3)C(=S)NCC3CCCO3)cc2c1 (centres unmarked) [NYAD-S3] | > 10 | > 10 |  | 
3 | Cc1cc(C)c2[nH]c(=O)c(CN(CCO)C(=S)Nc3ccc(F)cc3)cc2c1 [NYAD-S4] | > 10 | > 10 |  | 
4 | COc1ccc2[nH]c(=O)c(CN(Cc3cccnc3)C(=S)Nc3ccc(F)cc3)cc2c1 [NYAD-S5] | > 10 | > 10 |  | 
5 | Cc1ccc2[nH]c(=O)c(CN(Cc3ccco3)S(=O)(=O)c3ccc(Cl)cc3)cc2c1 [NYAD-S6-4] | > 10 | < 10 |  | 
6 | Cc1ccc2[nH]c(=O)c(CN(Cc3ccco3)C(=O)c3ccc(Cl)c(Cl)c3)cc2c1 [NYAD-S6-6] | > 10 | < 10 |  | 
7 | Cc1ccc2[nH]c(=O)c(CN(Cc3ccco3)C(=O)c3ccc(Cl)c(N4CCCCC4)c3)cc2c1 [NYAD-S6-8] | > 10 | < 10 |  | 
8 | Cc1ccc2[nH]c(=O)c(CN(Cc3ccco3)C(=O)c3ccc(F)c(Cl)c3)cc2c1 [NYAD-S6-10] | > 10 | < 10 |  | 
9 | Cc1ccc2[nH]c(=O)c(CN(Cc3ccco3)C(=O)c3ccc(F)c(C)c3)cc2c1 [NYAD-S6-19] | > 10 | < 10 |  | 
10 | Cc1ccc2[nH]c(=O)c(CN(Cc3ccco3)C(=O)c3ccc(F)c(F)c3)cc2c1 [NYAD-S6-21] | > 10 | < 10 |  | 
11 | Cc1cc(=O)n2c3ccccc3n(CC(O)CN3CCCC3)c2c1C#N (centres unmarked) [NYAD-S9] |  |  | > 10 | > 10
12 | Cc1cc(=O)n2c3ccccc3n(CC(O)CNc3ccccc3)c2c1C#N (centres unmarked) [NYAD-S10] |  |  | > 10 | > 10
13 | Cc1cc(=O)n2c3ccccc3n(CC(O)CN3CCCCC3)c2c1C#N (centres unmarked) [NYAD-S12] |  |  | > 10 | > 10
14 | Cc1cc(=O)n2c3ccccc3n(CC(O)CN3CCOCC3)c2c1C#N (centres unmarked) [NYAD-S13] |  |  | > 10 | > 10
15 | Cc1ccccc1N1CCN(CC(O)Cn2c3ccccc3n3c(=O)cc(C)c(C#N)c23)CC1 (centres unmarked) [NYAD-S14] |  |  | > 10 | > 10
16 | Cc1cc(=O)n2c3ccccc3n(CC(O)Cn3ccnc3)c2c1C#N (centres unmarked) [NYAD-S15] |  |  | > 10 | > 10
17 | Cc1cc(=O)n2c3ccccc3n(CC(O)CN3CCN(CCOc4ccc(Cl)cc4)CC3)c2c1C#N (centres unmarked) [NYAD-S16] |  |  | > 10 | < 10
18 | Cc1cc(=O)n2c3ccccc3n(CC(O)CN3CCN(CCO)CC3)c2c1C#N (centres unmarked) [NYAD-S18] |  |  | > 10 | > 10
19 | COc1ccc(CCNCC(O)Cn2c3ccccc3n3c(=O)cc(C)c(C#N)c23)cc1OC (centres unmarked) [NYAD-S19] |  |  | > 10 | > 10
20 | CCC(=O)N(Cc1ccco1)Cc1cc2cc(C)ccc2[nH]c1=O [NYAD-S20] | > 10 | > 10 |  | 
21 | Cc1cccc2cc(CN(Cc3ccco3)C(=O)c3ccccc3)c(=O)[nH]c12 [NYAD-S21] | > 10 | < 10 |  | 
22 | Cc1cccc2cc(CN(Cc3ccccc3)C(=O)c3ccco3)c(=O)[nH]c12 [NYAD-S22] | > 10 | > 10 |  | 

Row | SMILES | CC50 [1, 3] [µM] | IC50 [2, 4] [µM] | CC50 [1, 5] [µM] | IC50 ([2]; Table 2, formula II) [µM]
23 | Cc1cccc2cc(CN(Cc3ccco3)C(=O)c3ccc(C(C)(C)C)cc3)c(=O)[nH]c12 [NYAD-S23] | > 10 | > 10 |  | 
24 | CCOc1ccc(C(=O)N(Cc2ccco2)Cc2cc3ccc(C)cc3[nH]c2=O)cc1 [NYAD-S24] | > 10 | > 10 |  | 
25 | Cc1cccc2cc(CN(Cc3ccco3)C(=O)c3cccs3)c(O)nc12 [NYAD-S25] | > 10 | > 10 |  | 
26 | Cc1cccc(C(=O)N(Cc2ccco2)Cc2cc3cccc(C)c3[nH]c2=O)c1 [NYAD-S26] | > 10 | > 10 |  | 
27 | Cc1ccc2cc(CN(Cc3ccco3)C(=O)c3ccccc3)c(=O)[nH]c2c1 [NYAD-S27] | > 10 | > 10 |  | 
28 | Cc1ccc2cc(CN(Cc3ccco3)C(=O)c3ccc(F)cc3)c(=O)[nH]c2c1 [NYAD-S28] | > 10 | > 10 |  | 
29 | COc1ccccc1C(=O)N(Cc1ccco1)Cc1cc2ccc(C)cc2[nH]c1=O [NYAD-S29] | > 10 | > 10 |  | 
30 | Cc1cccc2cc(CN(Cc3ccco3)C(=O)c3cccnc3)c(=O)[nH]c12 [NYAD-S30] | > 10 | > 10 |  | 
31 | Cc1ccccc1C(=O)N(Cc1ccco1)Cc1cc2cccc(C)c2[nH]c1=O [NYAD-S31] | > 10 | > 10 |  | 
32 | Cc1cccc2cc(CN(Cc3ccco3)C(=O)c3ccccc3F)c(=O)[nH]c12 [NYAD-S32] | > 10 | > 10 |  | 
33 | Cc1cccc2cc(CN(Cc3ccco3)C(=O)c3ccc(F)cc3)c(=O)[nH]c12 [NYAD-S33] | > 10 | > 10 |  | 
34 | Cc1ccc2cc(CN(Cc3ccco3)C(=O)c3ccccc3F)c(=O)[nH]c2c1 [NYAD-S34] | > 10 | > 10 |  | 
35 | Cc1cccc2cc(CN(Cc3ccccc3)C(=O)c3cccc(Cl)c3)c(=O)[nH]c12 [NYAD-S35] | > 10 | > 10 |  | 
36 | Cc1ccc2[nH]c(=O)c(CN(Cc3ccco3)C(=O)c3ccc(Br)cc3)cc2c1 [NYAD-S36] | > 10 | < 10 |  | 
37 | Cc1ccc2[nH]c(=O)c(CN(Cc3ccccc3)C(=O)c3ccco3)cc2c1 [NYAD-S37] | > 10 | < 10 |  | 
38 | Cc1cccc(C(=O)N(Cc2ccco2)Cc2cc3ccc(C)cc3[nH]c2=O)c1 [NYAD-S40] | > 10 | > 10 |  | 
39 | COc1ccc(C(=O)N(Cc2ccco2)Cc2cc3cc(C)ccc3[nH]c2=O)cc1OC [NYAD-S41] | > 10 | > 10 |  | 
40 | Cc1ccc2[nH]c(=O)c(CN(CC3CCCO3)C(=O)c3ccco3)cc2c1 (centres unmarked) [NYAD-S42] | > 10 | > 10 |  | 
41 | Cc1cc2cc(CN(Cc3ccco3)C(=O)C3CCCCC3)c(=O)[nH]c2cc1C [NYAD-S43] | > 10 | > 10 |  | 
42 | Cc1ccc2[nH]c(=O)c(CN(Cc3ccco3)C(=O)c3cccs3)cc2c1 [NYAD-S44] | > 10 | > 10 |  | 
43 | Cc1ccc2[nH]c(=O)c(CN(Cc3ccco3)C(=O)c3ccccc3)cc2c1 [NYAD-S45] | > 10 | < 10 |  | 
44 | Cc1ccc2[nH]c(=O)c(CN(Cc3cccnc3)C(=O)c3ccco3)cc2c1 [NYAD-S46] | > 10 | > 10 |  | 

Row | SMILES | CC50 [1, 3] [µM] | IC50 [2, 4] [µM] | CC50 [1, 5] [µM] | IC50 ([2]; Table 2, formula II) [µM]
45 | Cc1ccc2cc(CN(CC3CCCO3)C(=O)c3ccco3)c(=O)[nH]c2c1C (centres unmarked) [NYAD-S47] | > 10 | > 10 |  | 
46 | Cc1ccc2cc(CN(Cc3ccccc3)C(=O)c3ccco3)c(=O)[nH]c2c1C [NYAD-S48] | > 10 | > 10 |  | 
47 | Cc1ccc2[nH]c(=O)c(CN(Cc3ccco3)C(=O)c3ccccc3F)cc2c1 [NYAD-S49] | > 10 | > 10 |  | 
48 | Cc1cccc(C(=O)N(Cc2ccco2)Cc2cc3cc(C)ccc3[nH]c2=O)c1 [NYAD-S50] | > 10 | > 10 |  | 
49 | Cc1cccc2cc(CN(Cc3ccco3)C(=O)N3CCOCC3)c(=O)[nH]c12 [NYAD-S51] | > 10 | > 10 |  | 
50 | Cc1ccc(NCC(O)Cn2c3ccccc3n3c(=O)cc(C)c(C#N)c23)cc1 (centres unmarked) [NYAD-S52] |  |  | > 10 | > 10
51 | COc1ccc(NCC(O)Cn2c3ccccc3n3c(=O)cc(C)c(C#N)c23)cc1 (centres unmarked) [NYAD-S53] |  |  | > 10 | > 10
52 | CCC1CCCCN1CC(O)Cn1c2ccccc2n2c(=O)cc(C)c(C#N)c12 (centres unmarked) [NYAD-S54] |  |  | > 10 | > 10
53 | Cc1ccc(NCC(O)Cn2c3ccccc3n3c(=O)cc(C)c(C#N)c23)cc1C (centres unmarked) [NYAD-S55] |  |  | > 10 | > 10
54 | CCOc1ccc(NCC(O)Cn2c3ccccc3n3c(=O)cc(C)c(C#N)c23)cc1 (centres unmarked) [NYAD-S56] |  |  | > 10 | > 10
55 | Cc1ccc(NCC(O)Cn2c3ccccc3n3c(=O)cc(C)c(C#N)c23)cc1Cl (centres unmarked) [NYAD-S57] |  |  | > 10 | > 10
56 | Cc1cc(C)cc(NCC(O)Cn2c3ccccc3n3c(=O)cc(C)c(C#N)c23)c1 (centres unmarked) [NYAD-S58] |  |  | > 10 | > 10
57 | Cc1cc(=O)n2c3ccccc3n(CC(O)CNc3ccc(C(C)C)cc3)c2c1C#N (centres unmarked) [NYAD-S59] |  |  | < 10 | < 10
58 | CCc1ccc(NCC(O)Cn2c3ccccc3n3c(=O)cc(C)c(C#N)c23)cc1 (centres unmarked) [NYAD-S60] |  |  | < 10 | > 10
59 | COc1ccc2[nH]c(=O)c(CN(Cc3ccco3)C(=O)c3ccccc3C)cc2c1 [NYAD-S61] | > 10 | > 10 |  | 
60 | Cc1cc(=O)n2c3ccccc3n(CC(O)CCl)c2c1C#N (centres unmarked) [NYAD-S62] |  |  | > 10 | > 10
61 | Cc1cc(=O)n2c3ccccc3n(CC(O)CNc3ccc(Cl)cc3)c2c1C#N (centres unmarked) [NYAD-S63] |  |  | > 10 | > 10
62 | Cc1cc(=O)n2c3ccccc3n(CC(O)CN3CCC(C)CC3)c2c1C#N (centres unmarked) [NYAD-S64] |  |  | > 10 | > 10
63 | COc1cccc(NCC(O)Cn2c3ccccc3n3c(=O)cc(C)c(C#N)c23)c1 (centres unmarked) [NYAD-S65] |  |  | > 10 | > 10
64 | Cc1cc(C)c2[nH]c(=O)c(CN(Cc3ccco3)C(=O)c3ccccc3)cc2c1 [NYAD-S80] | > 10 | > 10 |  | 
